Experiments:
Assay in all cases: relative viability (nuclei count vs DMSO), 5 days (fraction); higher = more cells survive
[1] = system: CAL-12T
In short: (§1)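 Lung cancer cell lines in 1536-well plates got either a single drug or a fixed anchor-drug dose together with five library-drug doses (not always all listed) in √10 steps, by pin tool, on the day after seeding. Nuclei were counted after 5 days, and relative viability is the treated-to-vehicle ratio of nuclei counts. Values are medians of duplicate plates.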

[2] = system: NCI-H322M
In short: as §1

[3] = system: HCC-827
In short: as §1

[4] = system: NCI-H2087
In short: as §1

[5] = system: RERF-LC-KJ
In short: as §1

[6] = system: LXF-289
In short: as §1

[7] = system: NCI-H3122
In short: as §1

[8] = system: LCLC-103H
In short: as §1

[9] = system: SK-LU-1
In short: as §1

[10] = system: BEN
In short: as §1

[11] = system: NCI-H2405
In short: as §1

[12] = system: NCI-H727
In short: as §1

[13] = system: 201T
In short: as §1

[14] = system: NCI-H1437
In short: as §1

[15] = system: NCI-H647
In short: as §1

[16] = system: NCI-H1792
In short: as §1

[17] = system: NCI-H2228
In short: as §1

[18] = system: LCLC-97TM1
In short: as §1

[19] = system: NCI-H1650
In short: as §1

## O=c1cc(-c2cccc3c2Sc2ccccc2S3)oc(N2CCOCC2)c1 + CC(C)C[C@H](NC(=O)[C@H](Cc1ccccc1)NC(=O)c1cnccn1)B(O)O [Bortezomib] (partner 0.002 µM)
[1]; first compound 0.08 µM
  relative viability: 0.716
[1]; first compound 0.253 µM
  relative viability: 0.945
[1]; first compound 0.8 µM
  relative viability: 1.02
[1]; first compound 2.53 µM
  relative viability: 0.98
[1]; first compound 8 µM
  relative viability: 1.05
[2]; first compound 0.08 µM
  relative viability: 1.21
[2]; first compound 0.253 µM
  relative viability: 1.21
[2]; first compound 0.8 µM
  relative viability: 1.2
[2]; first compound 2.53 µM
  relative viability: 1.04
[2]; first compound 8 µM
  relative viability: 1.17
[3]; first compound 0.08 µM
  relative viability: 0.962
[3]; first compound 0.253 µM
  relative viability: 0.96
[3]; first compound 0.8 µM
  relative viability: 0.974
[3]; first compound 2.53 µM
  relative viability: 0.873
[3]; first compound 8 µM
  relative viability: 1.11
[4]; first compound 0.08 µM
  relative viability: 1.06
[4]; first compound 0.253 µM
  relative viability: 1.02
[4]; first compound 0.8 µM
  relative viability: 1.1
[4]; first compound 2.53 µM
  relative viability: 0.792
[4]; first compound 8 µM
  relative viability: 0.888
[5]; first compound 0.08 µM
  relative viability: 1.04
[5]; first compound 0.253 µM
  relative viability: 1.36
[5]; first compound 0.8 µM
  relative viability: 1.22
[5]; first compound 2.53 µM
  relative viability: 1.09
[5]; first compound 8 µM
  relative viability: 1.02
[6]; first compound 0.08 µM
  relative viability: 0.994
[6]; first compound 0.253 µM
  relative viability: 0.976
[6]; first compound 0.8 µM
  relative viability: 1.08
[6]; first compound 2.53 µM
  relative viability: 0.988
[6]; first compound 8 µM
  relative viability: 1.03
[7]; first compound 0.08 µM
  relative viability: 1.05
[7]; first compound 0.253 µM
  relative viability: 1.15
[7]; first compound 0.8 µM
  relative viability: 1.08
[7]; first compound 2.53 µM
  relative viability: 1
[7]; first compound 8 µM
  relative viability: 1.12
[8]; first compound 0.08 µM
  relative viability: 1.16
[8]; first compound 0.253 µM
  relative viability: 1.18
[8]; first compound 0.8 µM
  relative viability: 1.08
[8]; first compound 2.53 µM
  relative viability: 1.14
[8]; first compound 8 µM
  relative viability: 1.37
[9]; first compound 0.08 µM
  relative viability: 1.12
[9]; first compound 0.253 µM
  relative viability: 1.18
[9]; first compound 0.8 µM
  relative viability: 1.16
[9]; first compound 2.53 µM
  relative viability: 1.2
[9]; first compound 8 µM
  relative viability: 1.91
[10]; first compound 0.08 µM
  relative viability: 0.802
[10]; first compound 0.253 µM
  relative viability: 0.858
[10]; first compound 0.8 µM
  relative viability: 0.991
[10]; first compound 2.53 µM
  relative viability: 0.889
[10]; first compound 8 µM
  relative viability: 1.23
[11]; first compound 0.08 µM
  relative viability: 0.949
[11]; first compound 0.253 µM
  relative viability: 1.11
[11]; first compound 0.8 µM
  relative viability: 0.996
[11]; first compound 2.53 µM
  relative viability: 0.98
[11]; first compound 8 µM
  relative viability: 1.03
[12]; first compound 0.253 µM
  relative viability: 1.1
[12]; first compound 2.53 µM
  relative viability: 0.66
[12]; first compound 8 µM
  relative viability: 0.972
[13]; first compound 0.08 µM
  relative viability: 1.07
[13]; first compound 0.253 µM
  relative viability: 1.15
[13]; first compound 0.8 µM
  relative viability: 1.15
[13]; first compound 2.53 µM
  relative viability: 1.02
[13]; first compound 8 µM
  relative viability: 1.08
[14]; first compound 0.08 µM
  relative viability: 0.51
[14]; first compound 0.253 µM
  relative viability: 0.626
[14]; first compound 0.8 µM
  relative viability: 0.473
[14]; first compound 2.53 µM
  relative viability: 0.555
[14]; first compound 8 µM
  relative viability: 0.543
[15]; first compound 0.08 µM
  relative viability: 0.978
[15]; first compound 0.253 µM
  relative viability: 1.3
[15]; first compound 0.8 µM
  relative viability: 1.04
[15]; first compound 2.53 µM
  relative viability: 0.85
[15]; first compound 8 µM
  relative viability: 1.57
[16]; first compound 0.253 µM
  relative viability: 1.4
[16]; first compound 0.8 µM
  relative viability: 1.05
[16]; first compound 2.53 µM
  relative viability: 0.904
[16]; first compound 8 µM
  relative viability: 1.27
[17]; first compound 0.08 µM
  relative viability: 0.965
[17]; first compound 0.253 µM
  relative viability: 1.16
[17]; first compound 0.8 µM
  relative viability: 1.19
[17]; first compound 2.53 µM
  relative viability: 0.982
[17]; first compound 8 µM
  relative viability: 1.23
[18]; first compound 0.08 µM
  relative viability: 0.732
[18]; first compound 0.253 µM
  relative viability: 0.387
[18]; first compound 0.8 µM
  relative viability: 0.528
[18]; first compound 2.53 µM
  relative viability: 0.344
[18]; first compound 8 µM
  relative viability: 1.16
[19]; first compound 0.08 µM
  relative viability: 0.212
[19]; first compound 0.253 µM
  relative viability: 0.168
[19]; first compound 0.8 µM
  relative viability: 0.189
[19]; first compound 2.53 µM
  relative viability: 0.16
[19]; first compound 8 µM
  relative viability: 0.184
